This test concerns the target T1, AnHSD (Paenarthrobacter nicotinovorans, UniProt A0ABT9TQY6).
T1 sequence (A0ABT9TQY6 1-348): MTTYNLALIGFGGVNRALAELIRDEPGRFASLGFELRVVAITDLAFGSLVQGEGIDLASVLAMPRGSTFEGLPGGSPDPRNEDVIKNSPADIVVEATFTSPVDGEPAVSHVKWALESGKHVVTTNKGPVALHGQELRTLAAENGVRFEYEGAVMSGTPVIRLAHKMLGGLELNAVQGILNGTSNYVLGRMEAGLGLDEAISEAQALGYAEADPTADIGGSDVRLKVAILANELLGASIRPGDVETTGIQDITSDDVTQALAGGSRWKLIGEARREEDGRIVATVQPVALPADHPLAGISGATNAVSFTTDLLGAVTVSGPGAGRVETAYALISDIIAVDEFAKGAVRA
Put plainly: residual L-homoserine oxidation activity, absorbance at […] nm. The class given is biochemical. As to conditions: read-out: Relative activity (%) at 10 mM.

Regarding `N[C@@H](CC(=O)O)C(=O)O` [L-aspartate], the activity at 10000 µM came out at 76.7 ± 1.53%.

For the origin of these results see doi:10.1101/2021.02.09.430557v1 (biorxiv, 2021).
